{
  "source": "patent US11840686B2",
  "about": "“Modulation of prekallikrein (PKK) expression” (Ionis Pharmaceuticals, Inc., priority 2013, dated 2023)",
  "note": "Strand notation (5' to 3'): a small letter for the sugar, then the base; units joined by * are phosphorothioate-linked, units joined directly phosphodiester-linked; [ ] holds rarer units or linkages, { } end groups; capitals alone tell only the bases. e = 2'-O-(2-methoxyethyl) (MOE); [5mC] = 5-methylcytosine; d = 2'-deoxy (DNA)",
  "data": [
    {"system": "human PKK mRNA", "assay": "Antisense inhibition of human PKK mRNA in HepaRG cells, 3,000 nM (Example 1)", "assay_type": "cell-based", "conditions": "Table 1; PKK mRNA, HepaRG cells, 3,000 nM, electroporation, ~24 h, relative to untreated control cells", "method_in_brief": "(§1)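 HepaRG cells, 20,000 per well, were electroporated with 3,000 nM 5-10-5 MOE gapmer (phosphorothioate, 5-methylcytosine). After about 24 h, PKK mRNA was measured by qRT-PCR with primer probe set RTS3454 and normalised to RIBOGREEN total RNA. Values are percent inhibition versus untreated cells.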", "units": {"% inhibition": "%"}, "values": [
      {"substance": "530936 (antisense eT*eG*e[5mC]*eT*eT*dG*d[5mC]*dT*dT*dG*dA*dA*dT*dA*dA*eA*eA*eT*e[5mC]*eA) [compound 530936]", "% inhibition": 27},
      {"substance": "530963 (antisense eT*eG*eG*eT*eG*d[5mC]*dA*d[5mC]*d[5mC]*dT*dT*dT*dT*dT*dT*eG*eG*e[5mC]*eA*eT) [compound 530963]", "% inhibition": 78},
      {"substance": "530969 (antisense eG*eT*eG*e[5mC]*e[5mC]*dA*d[5mC]*dT*dT*dT*d[5mC]*dA*dG*dA*dT*eG*eT*eT*eT*eT) [compound 530969]", "% inhibition": 0},
      {"substance": "530946 (antisense eT*eA*e[5mC]*eA*eT*d[5mC]*d[5mC]*d[5mC]*d[5mC]*dA*d[5mC]*d[5mC]*dT*d[5mC]*dT*eG*eA*eA*eG*eA) [compound 530946]", "% inhibition": 0},
      {"substance": "530937 (antisense eT*eA*eA*eG*eT*dT*dG*d[5mC]*dT*dT*dG*d[5mC]*dT*dT*dG*eA*eA*eT*eA*eA) [compound 530937]", "% inhibition": 0},
      {"substance": "530989 (eT*e[5mC]*eT*e[5mC]*e[5mC]*dT*d[5mC]*d[5mC]*dA*dA*dA*dG*dT*d[5mC]*dA*eA*e[5mC]*eT*e[5mC]*e[5mC]; antisense) [compound 530989]", "% inhibition": 28}
    ]},
    {"system": "human PKK mRNA", "assay": "Antisense inhibition of human PKK mRNA in HepaRG cells, 3,000 nM (Example 1)", "assay_type": "cell-based", "conditions": "Table 2; PKK mRNA, HepaRG cells, 3,000 nM, electroporation, ~24 h, relative to untreated control cells", "method_in_brief": "as §1", "units": {"% inhibition": "%"}, "values": [
      {"substance": "531030 (antisense eA*eA*eT*eT*e[5mC]*dA*dG*dT*dG*dT*dA*dA*dT*dT*d[5mC]*eA*eA*eA*eG*eG) [compound 531030]", "% inhibition": 24},
      {"substance": "531024 (eT*eT*eT*eA*eT*dT*dT*dG*dT*dG*dA*dG*dA*dA*dA*eG*eG*eT*eG*eT; antisense) [compound 531024]", "% inhibition": 69},
      {"substance": "531080 (e[5mC]*eA*eT*eT*eG*dT*d[5mC]*d[5mC]*dT*d[5mC]*dA*dG*d[5mC]*dA*dG*e[5mC]*eT*e[5mC]*eT*eG; antisense) [compound 531080]", "% inhibition": 55},
      {"substance": "531010 (eA*eA*eG*eA*eG*dT*dT*dT*dG*dT*dT*d[5mC]*d[5mC]*dT*d[5mC]*e[5mC]*eA*eA*e[5mC]*eA; antisense) [compound 531010]", "% inhibition": 52},
      {"substance": "531009 (eT*eT*eT*eG*eT*dT*d[5mC]*d[5mC]*dT*d[5mC]*d[5mC]*dA*dA*d[5mC]*dA*eA*eT*eG*e[5mC]*eG; antisense) [compound 531009]", "% inhibition": 65},
      {"substance": "531029 (antisense eA*eG*eT*eG*eT*dA*dA*dT*dT*d[5mC]*dA*dA*dA*dG*dG*eA*eG*e[5mC]*e[5mC]*eT) [compound 531029]", "% inhibition": 59}
    ]},
    {"system": "human PKK mRNA", "assay": "Antisense inhibition of human PKK mRNA in HepaRG cells, 3,000 nM (Example 1)", "assay_type": "cell-based", "conditions": "Table 3; HepaRG cells, electroporation with 3,000 nM antisense oligonucleotide, approx. 24 hours; PKK mRNA by RT-PCR (RTS3454), relative to untreated control cells", "method_in_brief": "as §1", "units": {"% inhibition": "%"}, "values": [
      {"substance": "531088 (eG*eG*eT*eT*eT*dT*dG*dT*dT*dT*dG*dT*dA*dA*dA*eA*eT*eT*eA*eG; antisense) [compound 531088]", "% inhibition": 27},
      {"substance": "531122 (antisense eT*eA*eA*e[5mC]*eA*dA*dA*dA*dA*dT*dG*d[5mC]*d[5mC]*dT*dT*eG*eT*eG*e[5mC]*e[5mC]) [compound 531122]", "% inhibition": 33},
      {"substance": "531115 (antisense eT*e[5mC]*e[5mC]*eT*eA*dA*dA*dT*dA*dG*dG*dA*dA*d[5mC]*dA*eA*eA*eG*eT*eA) [compound 531115]", "% inhibition": 0},
      {"substance": "531137 (antisense eT*eG*eT*e[5mC]*eT*dA*d[5mC]*dT*dA*dT*dT*dT*dG*dA*d[5mC]*e[5mC]*eA*eA*eT*eA) [compound 531137]", "% inhibition": 19},
      {"substance": "531146 (antisense e[5mC]*e[5mC]*eA*eG*eT*dG*dT*dA*dA*dT*dT*d[5mC]*dA*dA*dA*eG*eG*eA*eG*e[5mC]) [compound 531146]", "% inhibition": 40}
    ]},
    {"system": "human PKK mRNA", "assay": "Antisense inhibition of human PKK mRNA in HepaRG cells, 3,000 nM (Example 1)", "assay_type": "cell-based", "conditions": "Table 4; HepaRG cells, electroporation with 3,000 nM antisense oligonucleotide, approx. 24 hours; PKK mRNA by RT-PCR (RTS3454), relative to untreated control cells", "method_in_brief": "as §1", "units": {"% inhibition": "%"}, "values": [
      {"substance": "531211 (eT*eT*eG*eA*eT*dG*dT*d[5mC]*dA*dG*d[5mC]*dA*d[5mC]*dT*dG*eT*eT*eG*eA*e[5mC]; antisense) [compound 531211]", "% inhibition": 77},
      {"substance": "531205 (eA*e[5mC]*eA*eT*eT*dT*dT*dT*dT*dA*dA*dG*dT*dA*d[5mC]*eA*eG*eG*eA*eA; antisense) [compound 531205]", "% inhibition": 0},
      {"substance": "531224 (eA*eA*eG*eA*eG*dA*dA*dT*dG*d[5mC]*dT*d[5mC]*dA*dG*dA*eA*eA*eT*eG*eG; antisense) [compound 531224]", "% inhibition": 25}
    ]}
  ]
}
